We go through eight molecules from patent publication US9662308B2, “Orally bioavailable pentamidine prodrugs for the treatment of diseases” (Dritte Patentportfolio Beteiligungsgesellschaft mbH & Co. KG, priority 2008, dated 2017).

Values after ≈ are worked out from the molar mass of the structure shown. Like-named read-outs stand apart in the source and are kept apart here.

Data set [1] in a line: Solubility in 50 mM phosphate buffer (HPLC). The note with it: for solubility at 20 min: 50 mM phosphate buffer, thermodynamic from solid. The protocol: […] Subsequently, the undissolved part was removed by centrifugation (12,000 rpm) and the samples were immediately measured by HPLC. The evaluation of the solubility ensued via a calibration of N,N′-bis(succinyloxy)pentamidine (1) in DMSO.
Solubilities were determined analogously to the method described for compound 1.

How the values of data set [2] were obtained:
For the stability analyses, a 0.1 mM solution of N,N′-bis(succinyloxy)pentamidine (1) was prepared in a 50 mM potassium phosphate buffer/DMSO (90/10, vol/vol). The analysis took place at pH values of 2.0, 7.4 and 9.0. One sample was taken and immediately analyzed by HPLC every 15 min over a period of 150 min.
(§1) The stability analyses were evaluated by means of the following HPLC method: […]

How the values of data set [3] were obtained: Further analyses were conducted with human and murine plasma. 900 μl of the plasma was mixed with 100 μl of a 2 mM solution of N,N′-bis(succinyloxy)pentamidine (1). The final concentration of N,N′-bis(succinyloxy)pentamidine (1) was thus 0.2 mM. The samples were incubated at 37° C. in a shaking water bath and samples were taken after 0, 15, 30, 45, 60, 75, 90, 105 and 120 min. For this purpose, 100 μl was drawn in each case and mixed with 100 μl acetonitrile. The samples were shaken, centrifuged for 5 min and the supernatant was measured by HPLC.
as §1
This is another data set of the same source.

The subject of data set [4] is 9000×g supernatants, microsomes and mitochondria of human liver and kidney tissues. The format is in vitro ADME. To be noted: pH 6.3. The protocol:
The activation of the prodrug was determined in vitro by means of subcellular enzyme preparations. 9000×g of supernatants, microsomes and mitochondria of human and porcine liver and kidney tissues were used as the enzyme preparations. The incubation batches were composed of […] prodrug, 1 mM NADH, 1 U esterase and 0.3 mg enzyme preparation dissolved in 150 μ100 mM phosphate buffer, pH 6.3. The incubation took place over 20 min in a shaking water bath at 37° C. The incubation was terminated by adding 150 μl of acetonitrile. The samples were subsequently shaken for 10 min and the precipitated protein was removed by centrifuging at 10,000 RPM for 15 min. The supernatant was measured by means of HPLC.

How the values of data set [5] were obtained: Samples were stored at room temperature and 70° C. over a defined period and examined for analyzing the prodrug (1) storage stability. The storage period was 6 months for the room temperature samples, 7 days for the 70° C. samples. The prodrug (1) content was determined by means of HPLC. For this purpose, the samples were dissolved in a mixture of equal parts of methanol and phosphate buffer (20 mM, pH 7.4) and immediately measured. The HPLC method corresponds to the method described under “Characterization of the prodrugs”.
This is another data set of the same source.

For data set [6] the following is noted: rat, in vivo.
The test system of a further data set is trypanosomes. To be noted: cited from earlier work.
A further data set deals with leishmania. The note with it: cited from earlier work.
For another data set, the system named is plasmodia. To be noted: cited from earlier work.

For orientation: Solubility means the concentration that dissolves in the medium under given conditions. A higher Solubility goes with a readily soluble substance. For `CON=C(N)c1ccc(OCCCCCOc2ccc(C(N)=NOC)cc2)cc1` [N,N′-bis(methoxy)pentamidine], the results for the Solubility in data set [1] (pH 2.0), in [1] (pH 7.4) and in data set [1] (pH 9.0) were 1304 ± 28 µM (≈ 522 µg/mL), 8 ± 1 µM (≈ 3.2 µg/mL) and 10 ± 2 µM (≈ 4 µg/mL), respectively.

Turning to `N=C(NOC(=O)CCC(=O)O)c1ccc(OCCCCCOc2ccc(C(=N)NOC(=O)CCC(=O)O)cc2)cc1` [N,N′-bis(succinyloxy)pentamidine (1), 4,4′-Pentamethylendioxy-bis-[N-(carboxypropionyloxy)]benzamidine], the Solubility in [1] is 7500 µM (≈ 4290 µg/mL); in data set [1] (pH 2), “hydrolysis”; in [1] (pH 7.4) it was 7500 ± 340 µM (≈ 4290 µg/mL); in data set [1] (pH 9), 10780 ± 70 µM (≈ 6170 µg/mL). In addition, in data set [1] (pH 2), the “Solubility in acidic medium” value was “in the mM range”. The “Stability in the neutral and slightly alkaline pH range” value in [2] is reported as “stable”. The “Hydrolysis in aqueous medium” value in data set [2] (pH 2.0) was “rapid hydrolysis”. Moreover, the “Hydrolysis into monosuccinyl pentamidine and pentamidine diamidoxime (3)” value in data set [2] (pH 7.4) and in [2] (pH 9.0) was “only to a minor extent” in each case. The Hydrolysis in plasma result in data set [3] is “markedly”. Further, the “Pentamidine formation (conversion rate)” value in [4] was 0.04 ± 0.01 nmol/min/mg. Moreover, the “content pentamidine diamidoxime(3)” value in data set [5] (70° C., 0 days) stood at 0.4 ± 0.01% area %; in data set [5] (70° C., 1 day), 0.9 ± 0.01% area %; in [5] (70° C., 2 days), 1.0 ± 0.01% area %; in data set [5] (70° C., 4 days) it was 1.1 ± 0.01% area %; in [5] (70° C., 7 days), 1.5 ± 0.13% area %; in [5] (room temperature, 0 months), 0.4 ± 0.01% area %. Besides, the “content pentamidine diamidoxime(3)” value in data set [5] (room temperature, 0.5 months) is on record as 0.5 ± 0.01% area %; in [5] (room temperature, 1 month), 0.2 ± 0.02% area %; in data set [5] (room temperature, 2 months), 0.6 ± 0.16% area %; in data set [5] (room temperature, 3 months), 0.6 ± 0.01% area %; in data set [5] (room temperature, 6 months) it was 0.5 ± 0.01% area %. The “content prodrug (1)” value in data set [5] (70° C., 0 days) amounted to 98.4 area %; in data set [5] (70° C., 1 day), 98.0 area %; in data set [5] (70° C., 2 days), 97.6 area %; in [5] (70° C., 4 days), 97.9 area %; in data set [5] (70° C., 7 days), 97.4 area %; in data set [5] (room temperature, 0 months), 98.4 area %. Also, the “content prodrug (1)” value in [5] (room temperature, 0.5 months) worked out at 98.4 area %; in data set [5] (room temperature, 1 month), 98.6 area %; in data set [5] (room temperature, 2 months) it was 97.5 area %; in [5] (room temperature, 3 months) it was 97.5 area %; in [5] (room temperature, 6 months) it was 97.8 area %. For the same molecule, the content succinyloxypentamidin is 1.0 ± 0.02% area % in [5] (70° C., 0 days); 1.1 ± 0.03% area % in [5] (70° C., 1 day); 1.3 ± 0.20% area % in data set [5] (70° C., 2 days); 0.9 ± 0.01% area % in [5] (70° C., 4 days); 1.1 ± 0.26% area % in data set [5] (70° C., 7 days). Further, the content succinyloxypentamidine was 1.0 ± 0.02% area % in data set [5] (room temperature, 0 months); 1.0 ± 0.03% area % in [5] (room temperature, 0.5 months); 1.2 ± 0.16% area % in data set [5] (room temperature, 1 month); 1.8 ± 0.02% area % in [5] (room temperature, 2 months); 1.8 ± 0.04% area % in data set [5] (room temperature, 3 months); 1.5 ± 0.19% area % in [5] (room temperature, 6 months). In addition, the Relative oral bioavailability result in data set [6] is listed as “up to 98%”.

Regarding `CC(=O)ON=C(N)c1ccc(OCCCCCOc2ccc(C(N)=NOC(C)=O)cc2)cc1` [N,N′-bis(acetoxy)pentamidine], the Solubility in data set [1] (pH 2.0) turned out to be 14 ± 8 µM (≈ 6.39 µg/mL); in data set [1] (pH 7.4), 2 ± 1 µM (≈ 0.913 µg/mL); in data set [1] (pH 9.0), 3 ± 2 µM (≈ 1.37 µg/mL).

Turning to `NC(=NO)c1ccc(OCCCCCOc2ccc(C(N)=NO)cc2)cc1` [N,N′-bis(dihydroxy)pentamidine], the Solubility in data set [1] (pH 2.0) is over 35000 µM; in [1] (pH 7.4), 95 ± 8 µM (≈ 35.4 µg/mL); in [1] (pH 9.0) it was 21 ± 3 µM (≈ 7.82 µg/mL).

One may read the IC50 as the concentration needed to halve the response being measured. On to `N=C(N)c1ccc(OCCCCCOc2ccc(C(=N)N)cc2)cc1` [Pentamidine], for which the IC50 with trypanosomes was 0.8 to 3.2 nM; with leishmania, 820 to 2590 nM; in the data set with plasmodia, 35 to 129 nM.

Turning to `N=C(N)c1ccc(OCCCCCOc2ccc(C(N)=NO)cc2)cc1` [Pentamidine monoamidoxime], the results for the Solubility in data set [1] (pH 2.0), in [1] (pH 7.4) and in data set [1] (pH 9.0) were 22285 ± 1244 µM (≈ 7940 µg/mL), 1370 ± 291 µM (≈ 488 µg/mL) and 1257 ± 40 µM (≈ 448 µg/mL), respectively.

By solubility is commonly meant the dissolved amount per volume that the medium holds. For `N/C(=N\O)c1ccc(OCCCCCOc2ccc(/C(N)=N/O)cc2)cc1` [Pentamidine diamidoxime (3), Pentamidine diamidoxime], the solubility at 20 min in data set [1] (pH 2, aqueous buffer) was determined as 4210 ± 231 µM (≈ 1570 µg/mL); in [1] (pH 7.4, aqueous buffer), 12 ± 1 µM (≈ 4.47 µg/mL); in [1] (pH 9, aqueous buffer) it was 4 ± 1 µM (≈ 1.49 µg/mL).

Consider `CC(C)[C@H](N)C(=O)O/N=C(\N)c1ccc(OCCCCCOc2ccc(/C(N)=N/OC(=O)[C@@H](N)C(C)C)cc2)cc1` [N,N′-bis(valoxy)pentamidine], for which the Solubility in [1] (pH 2.0) was over 35000 µM; in data set [1] (pH 7.4) it was 157 ± 19 µM (≈ 89.6 µg/mL); in data set [1] (pH 9.0), 84 ± 18 µM (≈ 47.9 µg/mL).
